Results: US20260137665A1, “COMBINATION THERAPIES FOR THE TREATMENT OF CANCER” (AADI Bioscience, Inc., priority 2022, published 2026)

What was measured:
[1] = tested on: UMUC3 human bladder cancer xenografts; test: Anti-tumor activity in mice bearing UMUC3 tumor xenografts
Source text: UMUC3 is a human transitional cell carcinoma (bladder cancer) cell line harboring KRAS^G12C and PTEN null mutations. PTEN is a negative regulator or mTOR activity (UMUC3 mutation profile: KRAS^G12C, PTEN^null, TP53^F113C, ATM^Q2800fs, CDKN2A^null, UGT2B17^null.)
Briefly, female athymic mice were implanted with NCI-H2122 cells in their right flanks. When tumor volume reached approximately 100-150 mm^3, animals were randomly divided into nine groups (n=6/group), and administered with saline (control), a single agent drug, or a drug combination shown in Table F below according to the administration routes, dosages and administration frequencies shown in Table F below.

[2] = tested on: NCI-H2122 human non-small cell lung cancer xenografts; test: Anti-tumor activity in mice bearing NCI-H2122 tumor xenografts; format: in vivo; conditions: for Response Rate % (Tumor Regression >−30%): NCI-H2122-xenografted mice, doses per Table D
Method: Next, a similar set of experiments was performed in mice bearing human NCI-H2122 tumor xenografts. NCI-H2122 is a human NSCLC […] cancer cell line that harbors KRAS^G12C and STK11 null (loss of function) mutations.

[3] = tested on: NCI-H2030 human non-small cell lung cancer xenografts; test: Anti-tumor activity in mice bearing NCI-H2030 tumor xenografts; format: in vivo; conditions: for Response Rate % (Tumor Regression >−30%): NCI-H2030-xenografted mice, doses per Table A1; for tumor growth inhibition (TGI): NCI-H2030 xenografts, female athymic mice, n=3/group, doses and routes per Table A1
Source text: (NCI-H2030 mutation profile: KRAS^G12C, STK11^E317*, TP53^G262V.) The KRAS G12C mutation, which is common in NSCLC, leads to constitutive activation of the tumor growth-promoting RAS/MAPK signaling pathway. STK11 is a negative regulator of mTOR signaling. The mTOR pathway is often activated in patients with KRAS mutation and contributes to adaptive resistance to KRAS inhibitors.
Female athymic mice were implanted with human NCI-H2030 NSCLC cells in both flanks.

C=CC(=O)N1CCN(c2nc(=O)n(-c3c(C)ccnc3C(C)C)c3nc(-c4c(O)cccc4F)c(F)cc23)[C@@H](C)C1 (atropisomer, axis not shown; (M)) [sotorasib, 6-Fluoro-7-(2-fluoro-6-hydroxyphenyl)-(1M)-1-[4-methyl-2-(propan-2-yl)pyridin-3-yl]-4-[(2S)-2-methyl-4-(prop-2-enoyl)piperazin-1-yl]pyrido[2,3-d]pyrimidin-2(1H)-one]
mice tumor-free during the study ([1]; UMUC3-xenografted mice, n=6/group): 0/6
mice surviving to the end of the study (Day 42) ([1]; UMUC3-xenografted mice, n=6/group, doses per Table F): 0/6
Response Rate % (Tumor Regression >−30%) ([1]; UMUC3-xenografted mice, doses per Table F): 0%
tumor growth inhibition (TGI) ([1]; UMUC3 xenografts, female athymic mice, n=6/group, doses and routes per Table F): 100%
Response Rate % (Tumor Regression >−30%) [2]: 0%
tumor growth inhibition (TGI) ([2]; NCI-H2122 xenografts, female athymic mice, n=5/group, doses and routes per Table D): 79%
Response Rate % (Tumor Regression >−30%) [3]: 0%
tumor growth inhibition (TGI) [3]: 20%

CO[C@H]1C[C@@H]2CC[C@@H](C)[C@@](O)(O2)C(=O)C(=O)N2CCCC[C@H]2C(=O)O[C@H]([C@H](C)C[C@@H]2CC[C@@H](OCCO)[C@H](OC)C2)CC(=O)[C@H](C)/C=C(\C)[C@@H](O)[C@@H](OC)C(=O)[C@H](C)C[C@H](C)/C=C/C=C/C=C/1C [everolimus]
Response Rate % (Tumor Regression >−30%) [2]: 10%
Response Rate % (Tumor Regression >−30%) [3]: 0%
tumor growth inhibition (TGI) [3]: 22%
